Measured values as given in US12410208B2, “(2-acetamidyl)thio-beta-D-galactopyranoside derivatives” (Idorsia Pharmaceuticals Ltd, priority 2020, dated 2025).
Like-named read-outs stand apart in the source and are kept apart here.

How the values were obtained:
[1] = target: biotinylated human Gal-3 (hGal-3) (Homo sapiens, UniProt P17931); assay: Competitive binding assay: biotinylated hGal-3 binding to microplate-adsorbed asialofetuin (ASF), spectrophotometric
Method in brief: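 Serially diluted compounds competed with asialofetuin on the plate for biotinylated human Gal-3 during a 3 h incubation at 4° C. Streptavidin-peroxidase with ABTS gave the spectrophotometric signal. IC50 values were averaged over repeat runs.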

human Gal-1 (hGal-1) = human Gal-1 (hGal-1) (Homo sapiens, UniProt P09382); assay: Competitive binding assay: biotinylated hGal-1 binding to microplate-adsorbed asialofetuin (ASF), spectrophotometric; details: hGal-1 binding to asialofetuin; Table 15; R and S epimers of selected Examples also listed; read-out: IC50 (Galectin-1 inhibition)
Sequence of human Gal-1 (hGal-1) (P09382 whole entry): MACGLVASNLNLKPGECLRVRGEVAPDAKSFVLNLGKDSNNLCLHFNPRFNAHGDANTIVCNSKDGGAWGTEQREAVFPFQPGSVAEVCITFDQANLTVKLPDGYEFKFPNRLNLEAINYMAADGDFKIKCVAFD
Method in brief: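 Spectrophotometric competition readout with ABTS after streptavidin-peroxidase (80 ng/mL, 1 h, 4 °C) detection of bound biotinylated hGal-1.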

[2] = Table 6, hGal-3, read-out: IC50 (Gal-3 inhibition)
[3] = Gal-3 inhibition, Table 5, read-out: IC50

Sequence of biotinylated human Gal-3 (hGal-3) (P17931 whole entry): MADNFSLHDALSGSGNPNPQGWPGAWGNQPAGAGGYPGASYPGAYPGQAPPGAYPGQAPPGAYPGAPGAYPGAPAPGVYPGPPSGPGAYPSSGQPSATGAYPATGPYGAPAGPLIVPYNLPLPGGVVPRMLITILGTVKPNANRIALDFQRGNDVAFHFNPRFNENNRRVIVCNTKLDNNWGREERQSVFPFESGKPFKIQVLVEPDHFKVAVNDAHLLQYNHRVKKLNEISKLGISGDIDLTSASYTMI

Row | SMILES | IC50 [1, 2] [nM] | IC50 (human Gal-1 (hGal-1)) [nM] | IC50 [1, 3] [nM] | IC50 ([1]; Gal-3 inhibition, Table 3, read-out: IC50) [nM] | IC50 ([1]; Gal-3 inhibition, Table 4, read-out: IC50) [nM]
1 | CCN(C)C(=O)C(S[C@@H]1O[C@H](CO)[C@H](O)[C@H](n2cc(-c3cc(F)c(F)c(F)c3)nn2)[C@H]1O)C(O)(CC)CC (stereo partly drawn) [Example 2.32.203., 2-(((2S,3R,4S,5R,6R)-3,5-Dihydroxy-6-(hydroxymethyl)-4-(4-(3,4,5-trifluorophenyl)-1H-1,2,3-triazol-1-yl)tetrahydro-2H-pyran-2-yl)thio)-N,3-diethyl-3-hydroxy-N-methylpentanamide] | 490 | 1890 |  |  | 
2 | O=C(C(S[C@@H]1O[C@H](CO)[C@H](O)[C@H](n2cc(-c3cc(F)c(F)c(F)c3)nn2)[C@H]1O)C1(O)CCCC1)N1CCC1 (stereo partly drawn) [Example 2.38.206., 1-(Azetidin-1-yl)-2-(((2S,3R,4S,5R,6R)-3,5-dihydroxy-6-(hydroxymethyl)-4-(4-(3,4,5-trifluorophenyl)-1H-1,2,3-triazol-1-yl)tetrahydro-2H-pyran-2-yl)thio)-2-(1-hydroxycyclopentyl)ethan-1-one] |  | 770 | 230 |  | 
3 | CN(CC1CC1)C(=O)[C@H](S[C@@H]1O[C@H](CO)[C@H](O)[C@H](n2cc(-c3cc(F)c(F)c(F)c3)nn2)[C@H]1O)C1(O)CCC1 [Example 2.34.218R., (R)-N-(Cyclopropylmethyl)-2-(((2S,3R,4S,5R,6R)-3,5-dihydroxy-6-(hydroxymethyl)-4-(4-(3,4,5-trifluorophenyl)-1H-1,2,3-triazol-1-yl)tetrahydro-2H-pyran-2-yl)thio)-2-(1-hydroxycyclobutyl)-N-methylacetamide] |  | 20900 | 6080 |  | 
4 | CC1CCN1C(=O)C(S[C@@H]1O[C@H](CO)[C@H](O)[C@H](n2cc(-c3cc(F)c(F)c(F)c3)nn2)[C@H]1O)C(C)(C)O (stereo partly drawn) [Example 2.31.204., 2-(((2S,3R,4S,5R,6R)-3,5-Dihydroxy-6-(hydroxymethyl)-4-(4-(3,4,5-trifluorophenyl)-1H-1,2,3-triazol-1-yl)tetrahydro-2H-pyran-2-yl)thio)-3-hydroxy-3-methyl-1-(2-methylazetidin-1-yl)butan-1-one] |  | 2800 |  | 140 | 

The next compounds have a lower IC50 (human Gal-1 (hGal-1)) than those just listed; values first:

Row | IC50 [1, 2] [nM] | IC50 (human Gal-1 (hGal-1)) [nM] | IC50 [1, 3] [nM] | IC50 ([1]; Gal-3 inhibition, Table 3, read-out: IC50) [nM] | IC50 ([1]; Gal-3 inhibition, Table 4, read-out: IC50) [nM] | SMILES
5 |  | 590 |  |  | 90 | CN1CCC(O)(C(S[C@@H]2O[C@H](CO)[C@H](O)[C@H](n3cc(-c4cc(F)c(F)c(F)c4)nn3)[C@H]2O)C(=O)N(C)Cc2ccccc2)CC1 (stereo partly drawn) [Example 2.40.207., N-Benzyl-2-(((2S,3R,4S,5R,6R)-3,5-dihydroxy-6-(hydroxymethyl)-4-(4-(3,4,5-trifluorophenyl)-1H-1,2,3-triazol-1-yl)tetrahydro-2H-pyran-2-yl)thio)-2-(4-hydroxy-1-methylpiperidin-4-yl)-N-methylacetamide]
6 | 60 | 570 |  |  |  | CN(Cc1ccccc1)C(=O)C(S[C@@H]1O[C@H](CO)[C@H](O)[C@H](n2cc(-c3cc(F)c(F)c(F)c3)nn2)[C@H]1O)C(C)(C)O (stereo partly drawn) [Example 2.31.207., N-Benzyl-2-(((2S,3R,4S,5R,6R)-3,5-dihydroxy-6-(hydroxymethyl)-4-(4-(3,4,5-trifluorophenyl)-1H-1,2,3-triazol-1-yl)tetrahydro-2H-pyran-2-yl)thio)-3-hydroxy-N,3-dimethylbutanamide]
7 |  | 170 | 70 |  |  | CCN(C)C(=O)C(S[C@@H]1O[C@H](CO)[C@H](O)[C@H](n2cc(-c3cc(F)c(F)c(F)c3)nn2)[C@H]1O)C1(O)CCCCC1 (stereo partly drawn) [Example 2.39.203., 2-(((2S,3R,4S,5R,6R)-3,5-Dihydroxy-6-(hydroxymethyl)-4-(4-(3,4,5-trifluorophenyl)-1H-1,2,3-triazol-1-yl)tetrahydro-2H-pyran-2-yl)thio)-N-ethyl-2-(1-hydroxycyclohexyl)-N-methylacetamide]
8 |  | 60 | 30 |  |  | CN(C(=O)C(S[C@@H]1O[C@H](CO)[C@H](O)[C@H](n2cc(-c3cc(F)c(F)c(F)c3)nn2)[C@H]1O)C1(O)CCC(F)(F)CC1)C1CC1 (stereo partly drawn) [Example 2.44.221., N-Cyclopropyl-2-(4,4-difluoro-1-hydroxycyclohexyl)-2-(((2S,3R,4S,5R,6R)-3,5-dihydroxy-6-(hydroxymethyl)-4-(4-(3,4,5-trifluorophenyl)-1H-1,2,3-triazol-1-yl)tetrahydro-2H-pyran-2-yl)thio)-N-methylacetamide]
